Values joined by “and” are separate entries in the source; they are usually repeats but may differ in a detail not shown here. Equal entries are not always repeated.
How the values were obtained:
[1] = for mass density / viscosity: 101 kPa, Liquid
[2] = xn = mol fraction of the nth substance listed; conditions: 101 kPa, Liquid

CO [methanol]
[1]
Conditions	mass density [kg/m3]	viscosity [mPa·s]
298.15 K	786.64	0.577
308.15 K	777.15	0.525
318.15 K	767.59	0.481
328.15 K	757.83	0.443

CCCO [propan-1-ol] + CCCCn1cc[n+](C)c1.N#C[S-]
[2], x2 = 0
Conditions	mass density [kg/m3]	viscosity [mPa·s]
298.15 K	799.52	1.94
308.15 K	791.41	1.54
318.15 K	783.15	1.24
328.15 K	774.66	1.02
338.15 K	765.91	0.842
348.15 K	756.84	0.71

CCCCn1cc[n+](C)c1.N#C[S-] [1-butyl-3-methylimidazolium thiocyanate] + CO
[2]
Conditions	mass density, 298.15 K [kg/m3]	mass density, 308.15 K [kg/m3]	mass density, 318.15 K [kg/m3]	mass density, 328.15 K [kg/m3]	viscosity, 298.15 K [mPa·s]	viscosity, 308.15 K [mPa·s]	viscosity, 318.15 K [mPa·s]	viscosity, 328.15 K [mPa·s]
x1 = 0.0154	810	800.87	791.7	782.41	0.665	0.593	0.536	0.49
x1 = 0.0531	854.66	846.16	837.63	829.05	0.871	0.765	0.681	0.613
x1 = 0.0964	892.65	884.64	876.63	868.59	1.18	1.02	0.892	0.792
x1 = 0.1443	924.63	917.04	909.43	901.81	1.62	1.39	1.2	1.06
x1 = 0.2076	954.94	947.69	940.47	933.23	2.34	1.96	1.67	1.45
x1 = 0.3602	1001.45	994.74	988.06	981.43	5.15	4.13	3.33	2.82
x1 = 0.5083	1028.1	1021.68	1015.3	1008.99	9.75	7.55	6.03	4.85
x1 = 0.6227	1041.88	1035.64	1029.43	1023.26	14.5	10.8	8.4	6.68
x1 = 0.7114	1050.29	1044.13	1038.01	1031.94	19.4	14.1	10.7	8.4
x1 = 0.8006	1057.46	1051.39	1045.36	1039.38	25.4	18	13.4	10.32
x1 = 0.9046	1064.23	1058.22	1052.27	1046.37	34.1	23.3	16.9	12.78
x1 = 1	1069.79	1063.89	1058.02	1052.19	51.7	34.9	24.2	16.7

CCO [ethanol] + CCCCn1cc[n+](C)c1.N#C[S-]
[2], x2 = 0
Conditions	mass density [kg/m3]	viscosity [mPa·s]
298.15 K	785.17	1.09
308.15 K	776.49	0.912
318.15 K	767.67	0.774
328.15 K	758.65	0.664
338.15 K	749.35	0.589
348.15 K	739.75	0.512

CCO [ethanol]
[1]
Conditions	mass density [kg/m3]	viscosity [mPa·s]
298.15 K	785.17	1.09
308.15 K	776.49	0.912
318.15 K	767.67	0.774
328.15 K	758.65	0.664
338.15 K	749.35	0.589
348.15 K	739.75	0.512

CO [methanol] + CCCCn1cc[n+](C)c1.N#C[S-]
[2], x2 = 0
Conditions	mass density [kg/m3]	viscosity [mPa·s]
298.15 K	786.64	0.577
308.15 K	777.15	0.525
318.15 K	767.59	0.481
328.15 K	757.83	0.443

CCCO [propan-1-ol]
[1]
Conditions	mass density [kg/m3]	viscosity [mPa·s]
298.15 K	799.52	1.94
308.15 K	791.41	1.54
318.15 K	783.15	1.24
328.15 K	774.66	1.02
338.15 K	765.91	0.842
348.15 K	756.84	0.71

CCCCn1cc[n+](C)c1.N#C[S-] [1-butyl-3-methylimidazolium thiocyanate] + CCO
[2]
Conditions	mass density [kg/m3]	viscosity [mPa·s]
298.15 K, x1 = 0.0473	829.74	1.48
298.15 K, x1 = 0.1129	876.41	2.07
298.15 K, x1 = 0.1877	916.69	2.95
298.15 K, x1 = 0.2943	957.41	4.7
298.15 K, x1 = 0.3637	978.05	6.36
298.15 K, x1 = 0.5306	1014.59	11.7
298.15 K, x1 = 0.696	1039.72	19.7
298.15 K, x1 = 0.8114	1052.9	27.4
298.15 K, x1 = 0.9174	1062.78	36.2
298.15 K, x1 = 1	1069.79	51.7
308.15 K, x1 = 0.0473	821.61	1.23
308.15 K, x1 = 0.1129	868.74	1.71
308.15 K, x1 = 0.1877	909.46	2.41
308.15 K, x1 = 0.2943	950.56	3.77
308.15 K, x1 = 0.3637	971.37	4.95
308.15 K, x1 = 0.5306	1008.22	8.89
308.15 K, x1 = 0.696	1033.57	14.3
308.15 K, x1 = 0.8114	1046.84	19.2
308.15 K, x1 = 0.9174	1056.82	24.7
308.15 K, x1 = 1	1063.89	34.9
318.15 K, x1 = 0.0473	813.39	1.05
318.15 K, x1 = 0.1129	861.06	1.44
318.15 K, x1 = 0.1877	902.2	2.01
318.15 K, x1 = 0.2943	943.72	3.1
318.15 K, x1 = 0.3637	964.72	3.94
318.15 K, x1 = 0.5306	1001.9	7
318.15 K, x1 = 0.696	1027.47	10.9
318.15 K, x1 = 0.8114	1040.84	14.2
318.15 K, x1 = 0.9174	1050.88	17.8
318.15 K, x1 = 1	–	24.2
328.15 K, x1 = 0.0473	805.05	0.896
328.15 K, x1 = 0.1129	853.27	1.23
328.15 K, x1 = 0.1877	894.91	1.71
328.15 K, x1 = 0.2943	936.87	2.59
328.15 K, x1 = 0.3637	958.11	3.24
328.15 K, x1 = 0.5306	995.61	5.97
328.15 K, x1 = 0.696	1021.4	8.54
328.15 K, x1 = 0.8114	1034.86	10.9
328.15 K, x1 = 0.9174	1044.99	13.4
328.15 K, x1 = 1	1052.19	16.7
338.15 K, x1 = 0.0473	796.53	0.78
338.15 K, x1 = 0.1129	845.44	1.06
338.15 K, x1 = 0.1877	887.57	1.47
338.15 K, x1 = 0.2943	930.03	2.2
338.15 K, x1 = 0.3637	951.47	2.75
338.15 K, x1 = 0.5306	989.36	4.56
338.15 K, x1 = 0.696	1015.36	6.84
338.15 K, x1 = 0.8114	1028.95	8.64
338.15 K, x1 = 0.9174	1039.15	10.5
338.15 K, x1 = 1	1046.43	12.73
348.15 K, x1 = 0.0473	787.85	–
348.15 K, x1 = 0.1129	837.47	0.926
348.15 K, x1 = 0.1877	880.22	1.28
348.15 K, x1 = 0.2943	923.18	1.9
348.15 K, x1 = 0.3637	944.88	–
348.15 K, x1 = 0.5306	983.14	3.8
348.15 K, x1 = 0.696	1009.4	5.58
348.15 K, x1 = 0.8114	1023.05	7.01
348.15 K, x1 = 0.9174	1033.34	8.39
348.15 K, x1 = 1	1040.7	9.98

CCCCn1cc[n+](C)c1.N#C[S-] [1-butyl-3-methylimidazolium thiocyanate]
[1]
Conditions	mass density [kg/m3]	viscosity
298.15 K	1069.79	51.7 mPa·s
308.15 K	1063.89	34.9 mPa·s
318.15 K	1058.02	24.2 mPa·s
328.15 K	1052.19	16.7 mPa·s
338.15 K	1046.43	12.73 mPa·s and 12.7 mPa·s
348.15 K	1040.7	9.98 mPa·s

Conditions	Glass transition temperature [°C]
[1], Glass, DTA	-91.5
